The results in this text go back to ChEMBL document CHEMBL1165868, “Synthesis and antimicrobial activity of cholic acid hydrazone analogues” (2010).

Holding throughout (type): functional
One assay concerns Escherichia coli. The assay can be described thus: Antimicrobial activity against Escherichia coli after 24 hrs.
For another assay, the system named is Pseudomonas aeruginosa. Nature of the assay: Antimicrobial activity against Pseudomonas aeruginosa after 24 hrs.
The next assay concerns Klebsiella aerogenes. The assay can be described thus: Antimicrobial activity against Enterobacter aerogenes after 24 hrs.
Another assay relates to Staphylococcus aureus. The assay can be described thus: Antimicrobial activity against Staphylococcus aureus after 24 hrs.
The next assay concerns Enterococcus faecalis. The assay can be described thus: Antimicrobial activity against Enterococcus faecalis after 24 hrs.
Another assay deals with Priestia megaterium. Nature of the assay: Antimicrobial activity against Bacillus megaterium after 24 hrs.

Converted amounts (≈) assume the structure as drawn. The source made the active and inactive calls. The calls are words filed in the database; no cut-off is given here.

What is called MIC is the least concentration at which growth counts as inhibited. Take `COc1ccc2[nH]cc(/C=N/NC(=O)CC[C@@H](C)[C@H]3CC[C@H]4[C@@H]5[C@H](O)C[C@@H]6C[C@H](O)CC[C@]6(C)[C@H]5C[C@H](O)[C@]34C)c2c1`: the MIC result in the assay with Escherichia coli, with Pseudomonas aeruginosa, with Klebsiella aerogenes, in the assay on Staphylococcus aureus and in the assay on Priestia megaterium was “inactive” each time. Further, the lowest concentration to inhibit growth with Enterococcus faecalis (MIC) was 31.2 µg/mL (≈ 53.9 µM).

Take `C[C@H](CCC(=O)N/N=C/c1ccccc1Br)[C@H]1CC[C@H]2[C@@H]3[C@H](O)C[C@@H]4C[C@H](O)CC[C@]4(C)[C@H]3C[C@H](O)[C@]12C`: the MIC against Escherichia coli turned out to be 7.81 µg/mL (≈ 13.2 µM); in the assay on Enterococcus faecalis it was 1.96 µg/mL (≈ 3.32 µM); in the assay on Priestia megaterium it was 31.2 µg/mL (≈ 53 µM). The MIC entry in the assay with Pseudomonas aeruginosa, in the assay on Klebsiella aerogenes and with Staphylococcus aureus was “inactive” each time.
